Values after ≈ are worked out from the molar mass of the structure shown. Where two headings read alike, the source gives them in different places.
Experiments:
[1] = test system: MRC5 cells
[2] = in vitro; conditions: human
[3] = test system: C. beijerinckii B504; test: MIC test, anaerobes; type: cell-based; conditions: for MIC: Clostridium beijerinckii, B504, 24 h, read-out: Minimal Inhibition Concentration (MIC) C. beijerinckii B504
Experimental: (§1) The resveratrol derivatives were serially diluted in cMHB (BD Difco) in 96-well microplates. Plates were then inoculated with the indicator bacteria at a final concentration of 5 × 10^5 CFU/mL and incubated at 37 °C for 20 h. In the case of the anaerobic bacteria (Clostridium and Clostridioides), the test was performed following the recommendation of CLSI for anaerobes[77] but using RCM medium instead of cMHB. The cultures were cultivated inside an anaerobic chamber at 37 °C for 24 h. All the tests were performed in triplicate.

[4] = test system: C. ihumii AP5; test: MIC test, anaerobes; type: cell-based; conditions: 24 h, read-out: Minimal Inhibition Concentration (MIC) C. ihumii AP5
Experimental: as §1

[5] = test system: S.aureus LMG8224; test: microbe, parasite or virus in culture; type: cell-based, Staphylococcus aureus; conditions: for MIC: Staphylococcus aureus, LMG8224, 20 h, read-out: Minimal Inhibition Concentration (MIC) S.aureus LMG8224
[6] = test system: E. faecium LMG16003; test: microbe, parasite or virus in culture; type: cell-based; conditions: for MIC: Enterococcus faecium, LMG16003, 20 h, read-out: Minimal Inhibition Concentration (MIC) E. faecium LMG16003
[7] = test system: E. faecalis LMG08222; test: microbe, parasite or virus in culture; type: cell-based, Enterococcus faecalis; conditions: for MIC: Enterococcus faecalis, LMG08222, 20 h, read-out: Minimal Inhibition Concentration (MIC) E. faecalis LMG08222
[8] = test system: E. faecalis LMG16216; test: microbe, parasite or virus in culture; type: cell-based, Enterococcus faecalis; conditions: for MIC: Enterococcus faecalis, LMG16216, 20 h, read-out: Minimal Inhibition Concentration (MIC) E. faecalis LMG16216
[9] = test system: S.aureus LMG15975; test: microbe, parasite or virus in culture; type: cell-based, Staphylococcus aureus; conditions: for MIC: Staphylococcus aureus, LMG15975, 20 h, read-out: Minimal Inhibition Concentration (MIC) S.aureus LMG15975
[10] = test system: B. cereus ATCC 10987, E. faecalis V583, E. faecium LMG 16003, and S. aureus LMG 8224; type: cell-based; conditions: 2-fold the MIC, 24 h, cMHB
[11] = test system: B. cereus ATCC14579; test: microbe, parasite or virus in culture; type: cell-based, Bacillus cereus; conditions: for MIC: Bacillus cereus, ATCC14579, 20 h, read-out: Minimal Inhibition Concentration (MIC) B. cereus ATCC14579
[12] = test system: E. faecalis V583; test: microbe, parasite or virus in culture; type: cell-based, Enterococcus faecalis; conditions: for MIC: Enterococcus faecalis, V583, 20 h, read-out: Minimal Inhibition Concentration (MIC) E. faecalis V583
[13] = test system: C. tetani CECT4629; test: microbe, parasite or virus in culture; type: cell-based; conditions: for MIC: Clostridium tetani, CECT4629, 24 h, read-out: Minimal Inhibition Concentration (MIC) C. tetani CECT4629
[14] = test system: S.aureus LMG10147; test: microbe, parasite or virus in culture; type: cell-based, Staphylococcus aureus; conditions: for MIC: Staphylococcus aureus, LMG10147, 20 h, read-out: Minimal Inhibition Concentration (MIC) S.aureus LMG10147
[15] = test system: B. cereus ATCC10987; test: Effect of the compounds on actively growing bacteria (lysis, OD600); type: cell-based, Bacillus cereus; conditions: 2×, 1×, and 0.5× the MIC added at mid exponential phase
[16] = test system: C. botulinum CECT551; test: microbe, parasite or virus in culture; type: cell-based; conditions: for MIC: Clostridium botulinum, CECT551, 24 h, read-out: Minimal Inhibition Concentration (MIC) C. botulinum CECT551
[17] = test system: B. cereus ATCC10987; test: microbe, parasite or virus in culture; type: cell-based, Bacillus cereus; conditions: for MIC: Bacillus cereus, ATCC10987, 20 h, read-out: Minimal Inhibition Concentration (MIC) B. cereus ATCC10987
[18] = test system: E. coli LMG8224; test: Outer membrane permeabilization test (MIC with or without L-11 peptide); conditions: for MIC: Escherichia coli, LMG8224, read-out: MIC (μM) L-11 + 0 μM; for MIC (μM) L-11 + 4 μM: presence of 4 μM L-11 outer-membrane-perturbing peptide
[19] = test system: E. faecium LMG11423; test: microbe, parasite or virus in culture; type: cell-based; conditions: for MIC: Enterococcus faecium, LMG11423, 20 h, read-out: Minimal Inhibition Concentration (MIC) E. faecium LMG11423
[20] = test system: C. perfringens CECT376; test: microbe, parasite or virus in culture; type: cell-based; conditions: for MIC: Clostridium perfringens, CECT376, 24 h, read-out: Minimal Inhibition Concentration (MIC) C. perfringens CECT376
[21] = test system: C. difficile CECT531; test: microbe, parasite or virus in culture; type: cell-based, Clostridioides difficile; conditions: for MIC: Clostridioides difficile, CECT531, 24 h, read-out: Minimal Inhibition Concentration (MIC) C. difficile CECT531
[22] = test system: panel of aerobic and anaerobic Gram-positive bacteria; test: organism not typed; type: cell-based
[23] = Table 1, 128 to 2 μM, RCM medium, anaerobic, 24 h

| Compound | IC50 [1] | IC50 [2] | MIC [3] | MIC [4] | MIC [5] | MIC [6] | MIC [7] | MIC [8] | MIC [9] | MIC [11] | MIC [12] | MIC [13] | MIC [14] | MIC [16] | MIC [17] | MIC [18] | MIC (μM) L-11 + 4 μM [18] | MIC [19] | MIC [20] | MIC [21] | further results |
| --- | --- | --- | --- | --- | --- | --- | --- | --- | --- | --- | --- | --- | --- | --- | --- | --- | --- | --- | --- | --- | --- |
| 3-triethylsilyl resveratrol [compound 20] | 21.3 ± 5.9 µM |  |  |  |  |  |  |  |  |  |  |  |  |  |  |  |  |  |  |  |  |
| CC[Si](CC)(CC)Oc1ccc(/C=C/c2cc(O)cc(O)c2)cc1 [compound 31] |  | 32.1 ± 0.9 µM |  |  |  |  |  |  |  |  |  |  |  |  |  |  |  |  |  |  |  |
| CC(C)[Si](Oc1ccc(/C=C/c2cc(O)cc(O)c2)cc1)(C(C)C)C(C)C [compound 33] |  | 2.8 ± 0.2 µM | 21.3 ± 5.3 µM (≈ 8.19 µg/mL) | 13.3 ± 2.6 µM (≈ 5.12 µg/mL) | 128 µM (≈ 49.2 µg/mL) | 5.3 ± 1.3 µM (≈ 2.04 µg/mL) | 8 µM (≈ 3.08 µg/mL) | 8 µM (≈ 3.08 µg/mL) | 128 µM (≈ 49.2 µg/mL) | 26.6 ± 5.3 µM (≈ 10.2 µg/mL) | 21.3 ± 5.3 µM (≈ 8.19 µg/mL) | 6.7 ± 1.3 µM (≈ 2.58 µg/mL) | 128 µM (≈ 49.2 µg/mL) | 10.7 ± 2.6 µM (≈ 4.12 µg/mL) | 32 µM (≈ 12.3 µg/mL) | > 128 µM | 21.3 ± 5.3 µM | 16 µM (≈ 6.15 µg/mL) | 26.6 ± 5.3 µM (≈ 10.2 µg/mL) | 16 µM (≈ 6.15 µg/mL) | bactericidal/bacteriostatic effect [10]: bactericidal; lysis of actively growing cells [15]: most effective derivatives lysing the cells |
| 3-tert-Butyldimethylsilyl resveratrol [compound 16] | 2.7 ± 0.3 µM |  |  |  |  |  |  |  |  |  |  |  |  |  |  |  |  |  |  |  | Minimal Inhibition Concentration (MIC) C. beijerinckii B504 [3, 23]: 26.6 ± 5.3 µM; MIC ([4]; Table 1, 128 to 2 μM, RCM medium, anaerobic): 32 µM; Minimal Inhibition Concentration (MIC) S.aureus LMG8224 [5]: 16 ± 0 µM; Minimal Inhibition Concentration (MIC) E. faecium LMG16003 [6]: 16 ± 0 µM; Minimal Inhibition Concentration (MIC) E. faecalis LMG08222 [7]: 8 ± 0 µM; Minimal Inhibition Concentration (MIC) E. faecalis LMG16216 [8]: 16 ± 0 µM; Minimal Inhibition Concentration (MIC) S.aureus LMG15975 [9]: 16 ± 0 µM; Minimal Inhibition Concentration (MIC) B. cereus ATCC14579 [11]: 16 ± 0 µM; Minimal Inhibition Concentration (MIC) E. faecalis V583 [12]: 16 ± 0 µM; Minimal Inhibition Concentration (MIC) C. tetani CECT4629 [13, 23]: 6.6 ± 1.3 µM; Minimal Inhibition Concentration (MIC) S.aureus LMG10147 [14]: 16 ± 0 µM; Minimal Inhibition Concentration (MIC) C. botulinum CECT551 [16, 23]: 16 µM; Minimal Inhibition Concentration (MIC) B. cereus ATCC10987 [17]: 16 ± 0 µM; Minimal Inhibition Concentration (MIC) E. faecium LMG11423 [19]: 16 ± 0 µM; Minimal Inhibition Concentration (MIC) C. perfringens CECT376 [20]: 32 µM; Minimal Inhibition Concentration (MIC) C. difficile CECT531 [21]: 26.6 ± 5.3 µM |
| CCCCCCCCCCCCCCCCCC(=O)OC[C@H]1O[C@@H](Oc2cc(O)cc(/C=C/c3ccc(O)cc3)c2)[C@H](O)[C@@H](O)[C@@H]1O [compound 6, piceid stearate] |  |  |  |  |  | 2.6 ± 0.6 µM (≈ 1.71 µg/mL) | 16 µM (≈ 10.5 µg/mL) | 128 µM (≈ 84.1 µg/mL) |  |  | 128 µM (≈ 84.1 µg/mL) |  |  |  |  |  |  | 1 µM (≈ 0.657 µg/mL) |  |  |  |
| COc1cc(/C=C/c2ccc(O[C@@H]3O[C@H](C(=O)O)[C@@H](O)[C@H](O)[C@H]3O)cc2)cc(OC)c1 [compound 30, PTER glucuronate] |  |  | 10.7 ± 2.6 µM (≈ 4.63 µg/mL) | 8 µM (≈ 3.46 µg/mL) | 32 µM (≈ 13.8 µg/mL) |  | 64 µM (≈ 27.7 µg/mL) | 128 µM (≈ 55.4 µg/mL) | 32 µM (≈ 13.8 µg/mL) | 13.3 ± 2.6 µM (≈ 5.75 µg/mL) | 128 µM (≈ 55.4 µg/mL) | 4 µM (≈ 1.73 µg/mL) | 32 µM (≈ 13.8 µg/mL) | 4 µM (≈ 1.73 µg/mL) | 16 µM (≈ 6.92 µg/mL) | > 128 µM | 16 ± 0 µM |  | 5.3 ± 1.3 µM (≈ 2.29 µg/mL) | 13.3 ± 2.6 µM (≈ 5.75 µg/mL) | MIC [22]: < 16 µM |

— publication PMC9237828, “Chemically Tuning Resveratrol for the Effective Killing of Gram-Positive Pathogens” (Journal of Natural Products, 2022)
